In ChEMBL document CHEMBL1147600, “Synthesis of 5'-C-methyl-1',3'-dioxolan-4'-yl nucleosides” (Bioorg Med Chem Lett, 2004):
Calls of active or inactive are those of the source. The calls are words filed in the database; no cut-off is given here.

Columns and labels:
Huh-7 = test: Toxicity against human Huh7 cells was determined up to 100 uM concentration; NA means Not Active; format: cell-based
[1] = Toxicity against human lymphocytes was determined up to 100 uM concentration; NA means Not Active
Hepatitis B virus [2] = test: Activity of compound against hepatitis B virus was determined; IA means inactive; format: functional, organism-based
HepG2 = test: Toxicity against human hepatoma HepG2 cells was determined up to 100 uM concentration; NA means Not Active; format: cell-based
Hepatitis C virus [3] = test: Activity of compound against hepatitis C virus was determined; IA means inactive; format: functional, organism-based; conditions: Hepacivirus hominis
Hepatitis B virus [4] = test: Compound was evaluated against hepatitis B virus; IA means inactive; format: functional, organism-based
Hepatitis C virus [5] = test: Compound was evaluated against hepatitis C virus; IA means inactive; format: functional, organism-based; conditions: Hepacivirus hominis

SMILES	Toxicity (Huh-7)	Toxicity [1]	Activity (Hepatitis B virus [2])	Toxicity (HepG2)	Activity (Hepatitis C virus [3])	Activity (Hepatitis B virus [4])	Activity (Hepatitis C virus [5])
C[C@H]1O[C@@H](COC(=O)c2ccccc2)O[C@@H]1n1cc(F)c(N)nc1=O	Not Active	Not Active	inactive	Not Active	inactive		
C[C@H]1O[C@@H](CO)O[C@@H]1n1cc(F)c(N)nc1=O	Not Active	Not Active		Not Active		inactive	inactive
C[C@H]1O[C@@H](COC(=O)c2ccccc2)O[C@H]1n1cc(F)c(N)nc1=O	Not Active	Not Active		Not Active		inactive	inactive
C[C@@H]1OC(CO)OC1n1cc(F)c(N)nc1=O (stereo not given in full)	Not Active	Not Active		Not Active		inactive	inactive
C[C@H]1O[C@@H](CO)O[C@H]1n1cc(F)c(N)nc1=O	Not Active	Not Active		Not Active		inactive	inactive
